We go through 7 molecules from publication PMC12470121, “Exploring the Novel Pancreatic Lipase-Inhibitory Peptides in Chlorella pyrenoidosa: Preparation, Purification, Identification, and Molecular Docking” (Foods, 2025).

The term IC50 denotes the concentration that gives 50% inhibition.

For test [1], the system named is pancreatic lipase (PL). The settings on record: cited from earlier work. The text has this:
Their mechanisms of action are closely linked to a high hydrophobic amino acid content. […] Among them, the pancreatic lipase activity of VWTP was better. […] (36.28% pan ...

The test system of test [2] is intracellular triglyceride accumulation. The settings on record: ref [15]; cited from earlier work. The text has this:
Their mechanisms of action are closely linked to a high hydrophobic amino acid content.

Test [3] deals with T1, pancreatic lipase (PL) (Sus scrofa, UniProt P00591).
T1 construct: Pancreatic lipase (derived from porcine pancreas); purchased Yuanye Biotech (Shanghai, China); host or cells: porcine pancreas
T1 sequence (P00591 1-450): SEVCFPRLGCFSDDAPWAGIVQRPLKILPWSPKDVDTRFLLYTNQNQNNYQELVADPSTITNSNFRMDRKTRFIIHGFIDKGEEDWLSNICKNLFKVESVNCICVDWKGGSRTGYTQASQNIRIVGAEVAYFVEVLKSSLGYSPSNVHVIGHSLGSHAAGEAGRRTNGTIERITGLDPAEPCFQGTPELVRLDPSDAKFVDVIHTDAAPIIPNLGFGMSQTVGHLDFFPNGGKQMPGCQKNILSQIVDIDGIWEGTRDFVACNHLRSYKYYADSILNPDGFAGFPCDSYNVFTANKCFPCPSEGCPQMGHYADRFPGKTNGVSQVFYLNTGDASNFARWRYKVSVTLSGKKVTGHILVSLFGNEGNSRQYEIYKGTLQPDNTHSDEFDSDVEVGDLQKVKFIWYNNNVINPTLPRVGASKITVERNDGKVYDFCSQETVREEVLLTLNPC
Description: PL inhibition assay (pNPP substrate). The test is classed as biochemical, porcine. The settings on record: CPPH-I at 8 mg/mL vs orlistat at 8 µg/mL; p > 0.05. On the procedure: To evaluate the inhibitory activity of the peptide fractions against PL, we conducted experiments according to Zhang et al.. Briefly, a mixture containing 120 μL of PL (10 mg/mL), 40 μL of peptide sample, and 80 μL of 50 mmol/L Tris-HCl buffer (pH 8.0) was incubated at 37 °C for 10 min. Then, 160 μL of 0.8 mmol/L p-nitrophenyl palmitate (pNPP) dissolved in dimethyl sulfoxide was added to initiate the reaction. After incubation at 37 °C for 20 min, the reaction was terminated by heating in a water bath at 100 °C for 5 min, followed by centrifugation to remove precipitated material. The absorbance of 200 μL of the supernatant was measured at 405 nm using a microplate reader (Infinite® 200 PRO, Tecan, Männedorf, Switzerland). For the control group, the peptide sample was replaced with an equal volume of buffer; in the blank group, the PL solution was replaced with buffer. Finally, the activity of PL was calculated using Equation (1). (1) PL activity%=[1−B−b/(A−a)]×100% where A denotes the absorbance of the control group, B the absorbance of the sample group, a the absorbance of the control blank group, and b the absorbance of the sample blank group.

In test [4] the target is T2, Pancreatic lipase (derived from porcine pancreas) (porcine) (UniProt P00591).
T2 sequence: T1 sequence (P00591 1-450)

For “LLVVYPWTQR [peptide isolated from Chlorella (literature)]”, in the test on pancreatic lipase (PL) [1] (isolated from Chlorella, ref [15]), the “Pancreatic lipase inhibition (in words)” value is recorded as “demonstrated efficacy in inhibiting pancreatic lipase”. In addition, the “Reduction of intracellular triglyceride accumulation (in words)” value in test [2] is on record as “reducing intracellular triglyceride accumulation”. With “SPFWNINAH [oat bran-derived peptide (literature)]”, the “Pancreatic lipase-inhibitory activity (in words)” value in the test with pancreatic lipase (PL) [1] (oat bran-derived, ref [14]) is reported as “activity indicates its promise as an anti-obesity drug”. As for `CCCCCCCCCCC[C@@H](C[C@@H]1OC(=O)[C@H]1CCCCCC)OC(=O)[C@H](CC(C)C)NC=O` [orlistat], the “PL-I activity compared with orlistat” value at pancreatic lipase (PL) [3] is “no significant difference between CPPH-I and orlistat”. Turning to “FYLGYCDY [peptide derived from rice bran fat extract (literature)]”, at pancreatic lipase (PL) [1] (peptide from rice bran, ref [13], read-out: Pancreatic lipase inhibition IC50), the IC50 was 470 ± 20 nM.

IPYPL registered a PL inhibition rate at 2 mg/mL peptide (pNPP hydrolysis, absorbance at 405 nm) in test [4] of 4.49%. The molecule FLSQPF gave a PL inhibition rate at 2 mg/mL peptide (pNPP hydrolysis, absorbance at 405 nm) in test [4] of 11.5%. Molecule IVGPF yielded a PL inhibition rate at 2 mg/mL peptide (pNPP hydrolysis, absorbance at 405 nm) in test [4] of 7.64%.
